# Results taken from ChEMBL document CHEMBL3881525, “Analogs of dehydrophenylahistins and their therapeutic use” (2007).
# The source made the active and inactive calls. The rule behind the calls is not given here.
# Columns and labels:
# [1] = Cytotoxicity against human NCI-H292 cells assessed as reduction in cell viability measured after 48 hrs by resazurin dye-based fluorometric analysis; format: functional; conditions: NCI-H292, 48 h
# [2] = Cytotoxicity against human PC3 cells assessed as reduction in cell viability measured after 48 hrs by resazurin dye-based fluorometric analysis; format: functional; conditions: PC-3, 48 h
# [3] = Cytotoxicity against mouse B16F10 cells assessed as reduction in cell viability measured after 48 hrs by resazurin dye-based fluorometric analysis; format: functional; conditions: B16-F10, 48 h
# [4] = Cytotoxicity against human HT-29 cells assessed as reduction in cell viability measured after 48 hrs by resazurin dye-based fluorometric analysis; format: functional; conditions: Homo sapiens, HT-29, 48 h
# [5] = Antiproliferative activity against human mitoxantrone-resistant HL60/MX2 cells; format: functional, cell-based; conditions: HL-60
# HL-60 = assay: Ratio of EC50 for human mitoxantrone-sensitive HL60 cells to EC50 for human mitoxantrone-resistant HL60/MX2 cells; format: functional
# [6] = Antiproliferative activity against taxol-resistant human MES-SA/Dx5 cells expressing MDR1 mRNA and P-gp; format: functional, cell-based
# MES-SA = assay: Ratio of EC50 for taxol-resistant human MES-SA/DX5 cells expressing MDR1 mRNA and P-gp to EC50 for taxol-sensitive human MES-SA cells; format: functional
# Tubulin (Homo sapiens) [7] = target: T1, Tubulin (Homo sapiens) (UniProt P68371+Q9H4B7+P0DPH7+P68366+Q13509+Q71U36+P04350+Q3ZCM7+P07437+P68363+Q9BQE3+Q6PEY2+Q13885+Q9BVA1+Q9BUF5); assay: Induction of microtubule depolymerization in HUVEC at 20 nM measured after 30 mins by DAPI-staining based immunofluorescence analysis; format: cell-based
# Tubulin (Homo sapiens) [8] = target: T1, Tubulin (Homo sapiens); assay: Induction of microtubule depolymerization in HUVEC at 1.5 to 5 uM by turbidity spectroscopic analysis; format: cell-based
# [9] = Cytotoxicity against human MDA-MB-231 cells assessed as reduction in cell viability measured after 48 hrs by resazurin dye-based fluorometric analysis; format: functional; conditions: MDA-MB-231, 48 h
# [10] = Cytotoxicity against human HT-29 cells assessed as reduction in cell viability measured after 48 hrs by resazurin dye-based fluorometric analysis relative to control; format: functional
# [11] = target: Tubulin alpha (Homo sapiens) (UniProt P0DPH7+P68366+Q71U36+P68363+Q9BQE3+Q6PEY2+A6NHL2+Q9NY65); assay: Induction of alpha-tubulin depolymerization in HUVEC at 200 nM measured after 30 mins by DAPI staining based indirect immunofluorescence analysis; format: cell-based
# [12] = Cytotoxicity against mouse P388 cells assessed as reduction in cell viability measured after 48 hrs by resazurin dye-based fluorometric analysis; format: functional; conditions: P388, 48 h
# MCF7 [13] = assay: Antimitotic activity in human MCF7 cells assessed as microtubule polymer at twice mitotic block IC50 measured after 20 hrs by immunofluorescence analysis relative to control; format: functional, cell-based
# Tubulin (Homo sapiens) [14] = target: T1, Tubulin (Homo sapiens); assay: Induction of microtubule instability in human MCF7 cells assessed as time spent for attenuation at IC25 for mitotic block measured after 20 hrs by immunofluorescence analysis; format: cell-based
# Tubulin (Homo sapiens) [15] = target: T1, Tubulin (Homo sapiens); assay: Induction of microtubule instability in human MCF7 cells assessed as rescue frequency at IC50 for mitotic block measured after 20 hrs by immunofluorescence analysis; format: cell-based
# Tubulin (Homo sapiens) [16] = target: T1, Tubulin (Homo sapiens); assay: Time required for induction of microtubule dynamic instability in human MCF7 cells at IC50 for mitotic block measured after 20 hrs by immunofluorescence analysis; format: cell-based
# MCF7 [17] = assay: Antimitotic activity in human MCF7 cells assessed as decrease in microtubule polymer formation measured after 20 hrs by immunofluorescence analysis relative to control; format: functional, cell-based
# MCF7 [18] = assay: Antimitotic activity in human MCF7 cells assessed as bipolar cells with uncompressed chromosomes at mitotic block IC50 measured after 20 hrs by immunofluorescence analysis relative to control; format: functional
# Tubulin (Homo sapiens) [19] = target: T1, Tubulin (Homo sapiens); assay: Induction of microtubule instability in human MCF7 cells assessed as time spent for shortening at IC50 for mitotic block measured after 20 hrs by immunofluorescence analysis; format: cell-based
# MCF7 [20] = assay: Antimitotic activity in human MCF7 cells assessed as mitotic index measured after 20 hrs by DAPI-staining based fluorescence microscopic analysis; format: functional, cell-based
# Tubulin (Homo sapiens) [21] = target: T1, Tubulin (Homo sapiens); assay: Induction of microtubule instability in human MCF7 cells assessed as time spent for shortening at IC25 for mitotic block measured after 20 hrs by immunofluorescence analysis; format: cell-based
# Tubulin (Homo sapiens) [22] = target: T1, Tubulin (Homo sapiens); assay: Induction of microtubule instability in human MCF7 cells assessed as time spent for growth at IC50 for mitotic block measured after 20 hrs by immunofluorescence analysis; format: cell-based
# Tubulin (Homo sapiens) [23] = target: T1, Tubulin (Homo sapiens); assay: Induction of microtubule instability in human MCF7 cells assessed as time spent for attenuation at IC50 for mitotic block measured after 20 hrs by immunofluorescence analysis; format: cell-based
# Tubulin (Homo sapiens) [24] = target: T1, Tubulin (Homo sapiens); assay: Induction of microtubule instability in human MCF7 cells assessed as rescue frequency at IC25 for mitotic block measured after 20 hrs by immunofluorescence analysis; format: cell-based
# Tubulin (Homo sapiens) [25] = target: T1, Tubulin (Homo sapiens); assay: Induction of microtubule instability in human MCF7 cells assessed as catastrophy frequency at IC50 for mitotic block measured after 20 hrs by immunofluorescence analysis; format: cell-based
# Tubulin (Homo sapiens) [26] = target: T1, Tubulin (Homo sapiens); assay: Induction of microtubule instability in human MCF7 cells assessed as time spent for growth at IC25 for mitotic block measured after 20 hrs by immunofluorescence analysis; format: cell-based
# Tubulin (Homo sapiens) [27] = target: T1, Tubulin (Homo sapiens); assay: Time required for induction of microtubule dynamic instability in human MCF7 cells at IC25 for mitotic block measured after 20 hrs by immunofluorescence analysis; format: cell-based
# Tubulin (Bos taurus) = Tubulin (Bos taurus) (UniProt Q6B856+Q862L2+Q862F3); conditions: 10 uM
# Description: Inhibition of [3H]CLC binding to bovine brain tubulin at 10 uM measured after 120 mins in presence of GTP by scintillation counting method
# Tubulin (Homo sapiens) [28] = target: T1, Tubulin (Homo sapiens); assay: Induction of microtubule instability in human MCF7 cells assessed as catastrophy frequency at IC25 for mitotic block measured after 20 hrs by immunofluorescence analysis; format: cell-based
# [29] = Antiproliferative activity against taxol-resistant human MES-SA/Dx5 cells expressing MDR1 mRNA and P-gp pretreated with p-gp inhibitor cyclosporinA followed by compound addition; format: functional, cell-based
# [30] = Antifungal activity against Trichophyton rubrum isolate 1 measured after 48 hrs by broth dilution method; format: functional
# [31] = Antifungal activity against Epidermophyton floccosum isolate 1 measured after 48 hrs by broth dilution method; format: functional
# Trichophyton rubrum = assay: Fungicidal activity against Trichophyton rubrum isolate 2 measured after 48 hrs by broth dilution method; format: functional; conditions: isolate 2, 48 h
# Aspergillus fumigatus [32] = assay: Antifungal activity against Aspergillus fumigatus isolate 1 measured after 48 hrs by broth dilution method; format: functional; conditions: isolate 1, 48 h
# [33] = Antifungal activity against Trichophyton rubrum isolate 2 measured after 48 hrs by broth dilution method; format: functional
# [34] = Antiproliferative activity against taxol-sensitive human MES-SA cells […]; format: functional, cell-based
# [35] = Antifungal activity against Epidermophyton floccosum isolate 2 measured after 48 hrs by broth dilution method; format: functional
# [36] = Antifungal activity against Trichophyton mentagrophytes isolate 2 measured after 48 hrs by broth dilution method; format: functional
# Jurkat [37] = assay: Induction of apoptosis in human Jurkat cells assessed as PARP cleavage at 100 nM measured after 10 hrs by Western blotting; format: functional, cell-based
# [38] = Antifungal activity against Candida glabrata measured after 48 hrs by broth dilution method; format: functional; conditions: Nakaseomyces glabratus
# [39] = Antiproliferative activity against taxol-sensitive human MES-SA cells pretreated with p-gp inhibitor cyclosporinA followed by compound addition; format: functional, cell-based
# Jurkat [40] = assay: Induction of apoptosis in human Jurkat cells assessed as DNA laddering at 1 nM by gel electrophoresis; format: functional, cell-based
# [41] = system: Trichophyton mentagrophytes; assay: Fungicidal activity against Trichophyton mentagrophytes isolate 1 measured after 48 hrs by broth dilution method; format: functional; conditions: isolate 1, 48 h
# Aspergillus fumigatus [42] = assay: Antifungal activity against Aspergillus fumigatus isolate 2 measured after 48 hrs by broth dilution method; format: functional; conditions: isolate 2, 48 h
# [43] = Antifungal activity against Trichophyton mentagrophytes isolate 1 measured after 48 hrs by broth dilution method; format: functional
Structure (SMILES),EC50 [1],EC50 [2],EC50 [3],EC50 [4],EC50 [5],Ratio EC50 (HL-60),IC50 [6],Ratio EC50 (MES-SA),Activity (Tubulin (Homo sapiens) [7]),Activity (Tubulin (Homo sapiens) [8]),EC50 [9],further results
CC(C)(C)c1ocnc1/C=c1\[nH]c(=O)/c(=C/c2cc(F)cc(F)c2F)[nH]c1=O,16 nM,21 nM,> 2000 nM,11.4 to 17 nM,19 nM,0.7,13 nM,1,Active,Active,52 nM,–
CC(C)(C)c1ocnc1/C=c1\[nH]c(=O)/c(=C/c2ccccc2)[nH]c1=O.O=C(O)C(F)(F)F,19 nM,20 nM,> 2000 nM,21 to 22.2 nM,14 nM,0.6,17 nM,1.4,Active,Active,41 nM,inhibition (INH) [10]: 88%
CC(C)(C)c1ocnc1/C=c1\[nH]c(=O)/c(=C/c2cccc(F)c2)[nH]c1=O,14 nM,–,13 nM,16.3 to 17.1 nM,14 nM,0.5,14 nM,1.2,Active,Active,24 nM,–
CC(C)(C)c1[nH]cnc1/C=c1\[nH]c(=O)/c(=C/c2cccc(F)c2)[nH]c1=O,–,–,–,–,–,–,–,–,–,–,–,Activity [11]: Active
NS(=O)(=O)c1ccc(S(=O)(=O)Nc2cccc3c(Cl)c[nH]c23)cc1,–,–,–,–,–,–,–,–,–,–,–,IC50 [12]: 0.15 µg/mL
CC(C)(C)c1ocnc1/C=c1\[nH]c(=O)/c(=C/c2c(F)c(F)cc(F)c2F)[nH]c1=O,14 nM,17 nM,> 2000 nM,11 to 14.8 nM,–,0.4,14 nM,1.1,Active,Active,42 nM,–
COc1ccc(/C=C\c2cc(OC)c(OC)c(OC)c2)cc1O,–,–,–,–,–,–,–,–,–,–,–,Activity (MCF7 [13]): Active; TIME (Tubulin (Homo sapiens) [14]): 0.0075 h; Activity (Tubulin (Homo sapiens) [15]): 2.79 min⁻¹; TIME (Tubulin (Homo sapiens) [16]): 0.653 h; Activity (MCF7 [17]): Dose-dependent effect; Activity (MCF7 [18]): Active; TIME (Tubulin (Homo sapiens) [19]): 0.00367 h; inhibition (MCF7 [20]): Dose-dependent effect; TIME (Tubulin (Homo sapiens) [21]): 0.0035 h; TIME (Tubulin (Homo sapiens) [22]): 0.0055 h; TIME (Tubulin (Homo sapiens) [23]): 0.00917 h; Activity (Tubulin (Homo sapiens) [24]): 1.9 min⁻¹; Activity (Tubulin (Homo sapiens) [25]): 1.09 min⁻¹; TIME (Tubulin (Homo sapiens) [26]): 0.0045 h; TIME (Tubulin (Homo sapiens) [27]): 0.66 h; inhibition (Tubulin (Bos taurus)): Active; Activity (Tubulin (Homo sapiens) [28]): 1.52 min⁻¹
C=CC(C)(C)c1[nH]cnc1/C=c1\[nH]c(=O)/c(=C/c2ccccc2)[nH]c1=O,–,4.7 to 5.4 nM,–,42.6 to 48 nM,–,–,–,–,–,–,–,EC50 [29]: 88 nM; MIC [30]: > 16 µg/mL; MIC [31]: > 16 µg/mL; MFC (Trichophyton rubrum): > 16 µg/mL; MIC (Aspergillus fumigatus [32]): > 16 µg/mL; MIC [33]: 0.25 µg/mL; EC50 [34]: 116 nM; EC50 [6]: 98 nM; MIC [35]: > 16 µg/mL; MIC [36]: > 16 µg/mL; Activity (Jurkat [37]): Active; MIC [38]: > 68 µg/mL; EC50 [39]: 114 nM; Activity (Jurkat [40]): Active; MFC [41]: > 16 µg/mL; MIC (Aspergillus fumigatus [42]): > 16 µg/mL; MIC [43]: 4 µg/mL; inhibition (INH) [10]: 86%
